Patent publication US11198713B2, “Agents modulating beta-catenin functions and methods thereof” (FOG PHARMACEUTICALS, INC., priority 2017, dated 2021)

Target: T1, full-length beta-catenin (Axin site) (Homo sapiens, UniProt P35222)
T1 construct: 15 nM full-length beta-catenin, 20 nM FITC labeled peptide in buffer
T1 sequence (P35222 1-781): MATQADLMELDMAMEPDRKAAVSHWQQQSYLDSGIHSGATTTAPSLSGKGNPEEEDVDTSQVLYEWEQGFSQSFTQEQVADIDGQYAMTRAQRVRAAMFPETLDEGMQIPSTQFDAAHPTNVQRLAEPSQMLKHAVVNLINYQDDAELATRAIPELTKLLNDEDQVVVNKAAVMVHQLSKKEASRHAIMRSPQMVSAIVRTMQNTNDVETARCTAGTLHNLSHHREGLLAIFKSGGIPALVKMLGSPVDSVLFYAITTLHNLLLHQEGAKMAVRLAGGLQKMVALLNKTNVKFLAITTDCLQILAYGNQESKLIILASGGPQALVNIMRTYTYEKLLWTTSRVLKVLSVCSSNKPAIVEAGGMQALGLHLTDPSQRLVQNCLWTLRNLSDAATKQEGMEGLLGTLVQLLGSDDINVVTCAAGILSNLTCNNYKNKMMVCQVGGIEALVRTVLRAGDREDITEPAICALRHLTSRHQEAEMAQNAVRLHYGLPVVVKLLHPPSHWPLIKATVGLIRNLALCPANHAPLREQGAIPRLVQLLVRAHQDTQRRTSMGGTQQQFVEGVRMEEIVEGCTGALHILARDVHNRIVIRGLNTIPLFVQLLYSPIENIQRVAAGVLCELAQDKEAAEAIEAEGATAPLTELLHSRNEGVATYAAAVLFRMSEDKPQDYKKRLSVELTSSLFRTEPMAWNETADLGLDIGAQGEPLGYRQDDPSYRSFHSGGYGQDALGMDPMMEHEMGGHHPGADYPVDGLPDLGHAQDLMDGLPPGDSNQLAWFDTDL
Assay: Competition fluorescence polarization assay (Axin site probe)
Type: binding
Conditions: competition fluorescence polarization, Table 2; read-out: in vitro FP EC50
Experimental: FIG. 1. […] Peptide solutions were prepared in buffer (50 mM Tris pH 8.0, 250 mM NaCl, 2% glycerol, 0.5 mM EDTA, 0.02% w/v sodium azide) using a 3-fold serial dilution from 5 μM. Probe solution (15 nM full-length 13-Catenin, 20 nM FITC labeled peptide (FITC-PEG1-PQ-S5-ILD-S5-HVRRVWR (SEQ ID NO: 1) (hydrocarbon staple formed by two S5 via olefin metathesis)) in buffer) was prepared and incubated for 5 minutes, then 40 μL per well plated in a black polystyrene 384-well plate (Corning). Equal volume of the titrated peptide was added to the plate and incubated protected from light for 15 minutes prior to read. Reads were performed on a Spectramax M5 (Molecular Devices) in duplicate.
FIG. 7. […] BCL9 Competition FP assay: Peptide solutions were prepared in buffer (50 mM Tris pH 8.0, 250 mM NaCl, 2% glycerol, 0.5 mM EDTA, 0.02% w/v sodium azide) using a 3-fold serial dilution from 10 μM. Probe solution (250 nM full-length beta-catenin, 20 nM 5FAM labeled peptide in buffer) was prepared and 40 μL per well plated in a black polystyrene 384-well plate (Corning). Equal volume of the titrated peptide was added to the plate and incubated protected from light for 15 minutes prior to read. Reads were performed on a Spectramax M5 (Molecular Devices) in duplicate. Probe: Ac-[…]nLeu-Leu-2NapA-bala-bala-Lys5FAM-NH2 (SEQ ID NO: 2) (from Biochemistry, 2009, 48 (40), pp 9534-9541). Axin Competition FP assay: Peptide solutions were prepared in buffer (50 mM Tris pH 8.0, 250 mM NaCl, 2% glycerol, 0.5 mM EDTA, 0.02% w/v sodium azide) using a 3-fold serial dilution from 5 μM. Probe solution (15 nM full-length beta-catenin, 20 nM FITC labeled peptide in buffer) was prepared and incubated for 5 minutes, then 40 μL per well plated in a black polystyrene 384-well plate (Corning). Equal volume of the titrated peptide was added to the plate and incubated protected from light for 15 minutes prior to read. Reads were performed on a Spectramax M5 (Molecular Devices) in duplicate. Probe: FITC-StAx-33 from Grossmann et al. PNAS 109 17942-17947.

EC50 [µM] | SMILES
0.1 to 0.5 | CC[C@H](C)[C@@H]1NC(=O)[C@H](Cc2c[nH]cn2)NC(=O)[C@H](C)NC(=O)[C@H](CC(=O)O)NC(=O)[C@H](CC(C)C)NC(=O)[C@H]([C@@H](C)CC)NC(=O)[C@](C)(NC(=O)[C@H](C)NC(C)=O)CCCCCC=CCN2CC(C(=O)N[C@@H](CCCNC(=N)N)C(=O)N[C@H](C(=O)N[C@@H](Cc3c[nH]c4ccccc34)C(N)=O)C(C)C)(C2)NC1=O (single isomer, unassigned) [FP0516a Isomer 1, Ac-A-R7-I-L-D-A-H-I-MA-R-V-W-NH2]
> 5 | CC[C@H](C)[C@@H]1NC(=O)[C@H](Cc2ccccn2)NC(=O)[C@H](C)NC(=O)[C@H](CC(=O)O)NC(=O)[C@H](CC(C)C)NC(=O)[C@H]([C@@H](C)CC)NC(=O)[C@](C)(NC(=O)[C@H](C)NC(C)=O)CCCCCCC=CCOC(=O)N2CC[C@@](C(=O)N[C@@H](Cc3ccccc3)C(=O)N[C@H](C(=O)N[C@@H](Cc3c[nH]c4ccccc34)C(N)=O)C(C)C)(C2)NC1=O (single isomer, unassigned) [FP0555c Isomer 2, Ac-A-R8-I-L-D-A-2pyr-I-MB-F-V-W-NH2]
> 5 | CC[C@H](C)[C@@H]1NC(=O)[C@H](Cc2ccccn2)NC(=O)[C@H](C)NC(=O)[C@H](CC(=O)O)NC(=O)[C@H](CC(C)C)NC(=O)[C@H]([C@@H](C)CC)NC(=O)[C@](C)(NC(=O)[C@H](C)NC(C)=O)CCCCCCC=CCOC(=O)N2CC[C@@](C(=O)N[C@H](C(=O)N[C@H](C(=O)N[C@@H](Cc3c[nH]c4ccccc34)C(N)=O)C(C)C)[C@@H](C)CC)(C2)NC1=O (single isomer, unassigned) [FP0556c Isomer 1, Ac-A-R8-I-L-D-A-2pyr-I-MB-I-V-W-NH2]
> 5 | CC[C@H](C)[C@@H]1NC(=O)[C@H](Cc2ccccn2)NC(=O)[C@H](C)NC(=O)[C@H](CC(=O)O)NC(=O)[C@H](CC(C)C)NC(=O)[C@H]([C@@H](C)CC)NC(=O)[C@](C)(NC(=O)[C@H](C)NC(C)=O)CCCCCCC=CCOC(=O)N2CC[C@@](C(=O)N[C@@H](CC(C)C)C(=O)N[C@H](C(=O)N[C@@H](Cc3c[nH]c4ccccc34)C(N)=O)C(C)C)(C2)NC1=O (single isomer, unassigned) [FP0557c Isomer 1, Ac-A-R8-I-L-D-A-2pyr-I-MB-L-V-W-NH2]
> 5 | CC[C@H](C)[C@@H]1NC(=O)[C@H](Cc2ccccn2)NC(=O)[C@H](C)NC(=O)[C@H](CC(=O)O)NC(=O)[C@H](CC(C)C)NC(=O)[C@H]([C@@H](C)CC)NC(=O)[C@](C)(NC(=O)[C@H](C)NC(C)=O)CCCCCCC=CCOC(=O)N2CC[C@@](C(=O)N[C@@H](CCC(N)=O)C(=O)N[C@H](C(=O)N[C@@H](Cc3c[nH]c4ccccc34)C(N)=O)C(C)C)(C2)NC1=O (single isomer, unassigned) [FP0559c Isomer 1, Ac-A-R8-I-L-D-A-2pyr-I-MB-Q-V-W-NH2]

The next lines start with the molecule.

SMILES | EC50 [µM]
CC[C@H](C)[C@@H]1NC(=O)[C@H](Cc2c[nH]cn2)NC(=O)[C@H](C)NC(=O)[C@H](CC(=O)O)NC(=O)[C@H](CC(C)C)NC(=O)[C@H]([C@@H](C)CC)NC(=O)[C@](C)(NC(=O)[C@H](C)NC(C)=O)CCCCCC=CCN2CC(C(=O)N[C@@H](CCCNC(=N)N)C(=O)N[C@H](C(=O)N[C@@H](Cc3c[nH]c4ccccc34)C(N)=O)C(C)C)(C2)NC1=O (single isomer, unassigned) [FP0516a Isomer 2, Ac-A-R7-I-L-D-A-H-I-MA-R-V-W-NH2] | 0.5 to 5
CC[C@H](C)[C@@H]1NC(=O)[C@H](Cc2ccccn2)NC(=O)[C@H](C)NC(=O)[C@H](CC(=O)O)NC(=O)[C@H](CC(C)C)NC(=O)[C@H]([C@@H](C)CC)NC(=O)[C@](C)(NC(=O)[C@H](C)NC(C)=O)CCCCCCC=CCOC(=O)N2CC[C@@](C(=O)N[C@@H](C)C(=O)N[C@H](C(=O)N[C@@H](Cc3c[nH]c4ccccc34)C(N)=O)C(C)C)(C2)NC1=O (single isomer, unassigned) [FP0554c Isomer 1, Ac-A-R8-I-L-D-A-2pyr-I-MB-A-V-W-NH2] | > 5
CC[C@H](C)[C@@H]1NC(=O)[C@H](Cc2ccccn2)NC(=O)[C@H](C)NC(=O)[C@H](CC(=O)O)NC(=O)[C@H](CC(C)C)NC(=O)[C@H]([C@@H](C)CC)NC(=O)[C@](C)(NC(=O)[C@H](C)NC(C)=O)CCCCCCC=CCOC(=O)N2CC[C@@](C(=O)N[C@@H](C)C(=O)N[C@H](C(=O)N[C@@H](Cc3c[nH]c4ccccc34)C(N)=O)C(C)C)(C2)NC1=O (single isomer, unassigned) [FP0554c Isomer 2, Ac-A-R8-I-L-D-A-2pyr-I-MB-A-V-W-NH2] | > 5
CC[C@H](C)[C@@H]1NC(=O)[C@H](Cc2ccccn2)NC(=O)[C@H](C)NC(=O)[C@H](CC(=O)O)NC(=O)[C@H](CC(C)C)NC(=O)[C@H]([C@@H](C)CC)NC(=O)[C@](C)(NC(=O)[C@H](C)NC(C)=O)CCCCCCC=CCOC(=O)N2CC[C@@](C(=O)N[C@@H](Cc3ccccc3)C(=O)N[C@H](C(=O)N[C@@H](Cc3c[nH]c4ccccc34)C(N)=O)C(C)C)(C2)NC1=O (single isomer, unassigned) [FP0555c Isomer 1, Ac-A-R8-I-L-D-A-2pyr-I-MB-F-V-W-NH2] | > 5
CC[C@H](C)[C@@H]1NC(=O)[C@H](Cc2ccccn2)NC(=O)[C@H](C)NC(=O)[C@H](CC(=O)O)NC(=O)[C@H](CC(C)C)NC(=O)[C@H]([C@@H](C)CC)NC(=O)[C@](C)(NC(=O)[C@H](C)NC(C)=O)CCCCCCC=CCOC(=O)N2CC[C@@](C(=O)N[C@H](C(=O)N[C@H](C(=O)N[C@@H](Cc3c[nH]c4ccccc34)C(N)=O)C(C)C)[C@@H](C)CC)(C2)NC1=O (single isomer, unassigned) [FP0556c Isomer 2, Ac-A-R8-I-L-D-A-2pyr-I-MB-I-V-W-NH2] | > 5
CC[C@H](C)[C@@H]1NC(=O)[C@H](Cc2ccccn2)NC(=O)[C@H](C)NC(=O)[C@H](CC(=O)O)NC(=O)[C@H](CC(C)C)NC(=O)[C@H]([C@@H](C)CC)NC(=O)[C@](C)(NC(=O)[C@H](C)NC(C)=O)CCCCCCC=CCOC(=O)N2CC[C@@](C(=O)N[C@@H](CC(C)C)C(=O)N[C@H](C(=O)N[C@@H](Cc3c[nH]c4ccccc34)C(N)=O)C(C)C)(C2)NC1=O (single isomer, unassigned) [FP0557c Isomer 2, Ac-A-R8-I-L-D-A-2pyr-I-MB-L-V-W-NH2] | > 5
CC[C@H](C)[C@@H]1NC(=O)[C@H](Cc2ccccn2)NC(=O)[C@H](C)NC(=O)[C@H](CC(=O)O)NC(=O)[C@H](CC(C)C)NC(=O)[C@H]([C@@H](C)CC)NC(=O)[C@](C)(NC(=O)[C@H](C)NC(C)=O)CCCCCCC=CCOC(=O)N2CC[C@@](C(=O)N[C@@H](CC(N)=O)C(=O)N[C@H](C(=O)N[C@@H](Cc3c[nH]c4ccccc34)C(N)=O)C(C)C)(C2)NC1=O (single isomer, unassigned) [FP0558c Isomer 1, Ac-A-R8-I-L-D-A-2pyr-I-MB-N-V-W-NH2] | > 5
CC[C@H](C)[C@@H]1NC(=O)[C@H](Cc2ccccn2)NC(=O)[C@H](C)NC(=O)[C@H](CC(=O)O)NC(=O)[C@H](CC(C)C)NC(=O)[C@H]([C@@H](C)CC)NC(=O)[C@](C)(NC(=O)[C@H](C)NC(C)=O)CCCCCCC=CCOC(=O)N2CC[C@@](C(=O)N[C@@H](CC(N)=O)C(=O)N[C@H](C(=O)N[C@@H](Cc3c[nH]c4ccccc34)C(N)=O)C(C)C)(C2)NC1=O (single isomer, unassigned) [FP0558c Isomer 2, Ac-A-R8-I-L-D-A-2pyr-I-MB-N-V-W-NH2] | > 5
